# Test results reported in US20100184786A1, “Polar Quinazolines” (Wyeth LLC, priority 2008, published 2010).
# Columns and labels:
# ABCA1 gene = assay: Gene regulation by LXR (murine): ABCA1 gene regulation, mRNA by real-time PCR; assay type: cell-based; settings: Mus musculus; for Emax: read-out: Agonism ABCA1
# human LXRα = biological target: T1, human LXRα (Homo sapiens, UniProt Q13133); assay: Ligand-binding test procedure for human LXRα (3H T0901317 tracer, flash plates); settings: competition with 3H T0901317; read-out: hLXRa binding IC50
# T1 construct: biotin (biotinylated); made in house; host or cells: E. coli
# T1 sequence (Q13133 1-447): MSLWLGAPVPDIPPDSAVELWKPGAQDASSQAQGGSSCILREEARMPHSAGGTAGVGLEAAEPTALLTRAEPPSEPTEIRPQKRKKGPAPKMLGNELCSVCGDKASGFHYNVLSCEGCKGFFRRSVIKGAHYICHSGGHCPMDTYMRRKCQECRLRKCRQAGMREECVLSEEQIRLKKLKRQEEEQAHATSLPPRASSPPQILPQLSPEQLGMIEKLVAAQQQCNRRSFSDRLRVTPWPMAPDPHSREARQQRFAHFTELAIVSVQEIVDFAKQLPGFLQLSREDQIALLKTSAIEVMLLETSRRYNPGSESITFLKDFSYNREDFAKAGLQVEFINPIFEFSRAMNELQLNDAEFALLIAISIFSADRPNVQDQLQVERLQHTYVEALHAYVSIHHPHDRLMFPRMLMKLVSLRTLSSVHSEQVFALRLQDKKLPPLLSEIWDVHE
# Experimental: II. Ligand-Binding Test Procedure for Human LXRa.
# (§1) • Buffer: 100 mM KCl, 100 mM TRIS (pH 7.4 at +4° C.), 8.6% glycerol, 0.1 mM PMSF*, 2 mM MTG*, 0.2% CHAPS (* not used in wash buffer) • Tracer: ^3H T0901317 • Receptor source: E. coli extract from cells expressing biotinylated hLXRα. Extract was made in a similar buffer as above, but with 50 mM TRIS.
# • Washed streptavidin and coated flash plates with wash buffer. • Diluted receptor extract to give Bmax˜4000 cpm and add to the wells. • Wrapped the plates in aluminum foil and stored them at +4° C. over night.
# (§2) • Made a dilution series in DMSO of the test ligands. • Made a 5 nM solution of the radioactive tracer in buffer. • Mixed 2500 diluted tracer with 50 of the test ligand from each concentration of the dilution series. • Washed the receptor-coated flash plates. • Added 2000 per well of the ligand/radiolabel mixture to the receptor-coated flash plates. • Wrapped the plates in aluminum foil and incubate at +4° C. over night.
# • Aspirated wells, and wash the flashed plates. Sealed the plate. • Measured the remaining radioactivity in the plate.
# human LXRβ = biological target: T2, human LXRβ (Homo sapiens, UniProt P55055); assay: Ligand-binding test procedure for human LXRβ (3H T0901317 tracer, flash plates); settings: competition with 3H T0901317; read-out: hLXRb binding IC50
# T2 construct: biotin (biotinylated); made in house; host or cells: E. coli
# T2 sequence (P55055 1-460): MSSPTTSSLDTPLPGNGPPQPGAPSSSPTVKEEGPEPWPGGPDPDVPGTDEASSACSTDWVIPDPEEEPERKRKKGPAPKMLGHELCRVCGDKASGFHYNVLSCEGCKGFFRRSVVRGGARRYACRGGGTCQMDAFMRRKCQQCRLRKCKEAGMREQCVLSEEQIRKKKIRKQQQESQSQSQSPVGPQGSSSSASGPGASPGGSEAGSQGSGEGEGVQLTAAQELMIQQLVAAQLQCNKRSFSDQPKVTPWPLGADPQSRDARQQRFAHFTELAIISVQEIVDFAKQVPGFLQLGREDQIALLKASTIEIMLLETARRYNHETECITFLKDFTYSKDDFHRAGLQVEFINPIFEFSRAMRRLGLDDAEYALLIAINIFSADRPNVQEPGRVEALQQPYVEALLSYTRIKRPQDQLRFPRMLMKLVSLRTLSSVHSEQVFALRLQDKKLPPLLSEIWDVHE
# Experimental: I. Ligand-Binding Test Procedure for Human LXRβ.
# as §1, with “extracted” for “extract”, “hLXRβ.” for “hLXRα.”
# • Washed streptavidin and coated flash plates with wash buffer. • Diluted receptor extract to give Bmax˜4000 cpm and add to the wells. • Wrapped the plates in aluminum foil and stored them at +4° C. overnight.
# as §2
# • Aspirated wells, and washed the flashed plates. Sealed the plate. • Measured the remaining radioactivity in the plate.
SMILES,EC50 (ABCA1 gene) [µM],Emax (ABCA1 gene) [%],IC50 (human LXRα) [µM],IC50 (human LXRβ) [µM]
"N#CCCCCS(=O)(=O)c1cccc(Oc2ccc(F)c(-c3ncnc4c(C(F)(F)F)cccc34)c2)c1 [Example 31, 5-[(3-{4-fluoro-3-[8-(trifluoromethyl)quinazolin-4-yl]phenoxy}phenyl)sulfonyl]pentanenitrile]",1.77,99,0.628,0.052
"CS(=O)(=O)CCCS(=O)(=O)c1cccc(Oc2ccc(Cl)c(-c3ncnc4c(C(F)(F)F)cccc34)c2)c1 [Example 5, 4-[2-chloro-5-(3-{[3-(methylsulfonyl)propyl]sulfonyl}phenoxy)phenyl]-8-(trifluoro-methyl)quinazoline]",3.25,51,0.889,0.14
"N#CCCCS(=O)(=O)c1cccc(Oc2ccc(Cl)c(-c3ncnc4c(Cl)cccc34)c2)c1 [Example 4, 4-({3-[4-chloro-3-(8-chloroquinazolin-4-yl)phenoxy]phenyl}sulfonyl)butanenitrile]",4.34,48,1.81,0.105
"NCCCS(=O)(=O)c1cccc(Oc2ccc(F)c(-c3ncnc4c(C(F)(F)F)cccc34)c2)c1 [Example 28, 3-[(3-{4-fluoro-3-[8-(trifluoromethyl)quinazolin-4-yl]phenoxy}phenyl)sulfonyl]propan-1-amine]",,3,2.99,0.116
"NS(=O)(=O)c1cccc(Oc2ccc(F)c(-c3ncnc4c(Cl)cccc34)c2)c1 [Example 20, 3-[3-(8-chloroquinazolin-4-yl)-4-fluorophenoxy]benzenesulfonamide]",,,2.88,0.336
"CS(=O)(=O)c1cc(Oc2ccc(Cl)c(-c3ncnc4c(C(F)(F)F)cccc34)c2)ccc1C(N)=O [Example 7, 4-{4-chloro-3-[8-(trifluoromethyl)quinazolin-4-yl]phenoxy}-2-(methylsulfonyl)benzamide]",,,0.986,0.288
"CS(=O)(=O)NCCCS(=O)(=O)c1cccc(Oc2ccc(F)c(-c3ncnc4c(Cl)cccc34)c2)c1 [Example 50, N-[3-({3-[3-(8-chloroquinazolin-4-yl)-4-fluorophenoxy]phenyl}sulfonyl)propyl]methane-sulfonamide]",,,6.35,0.471
"NCCCCS(=O)(=O)c1cccc(Oc2ccc(F)c(-c3ncnc4c(C(F)(F)F)cccc34)c2)c1 [Example 35, 4-[(3-{4-fluoro-3-[8-(trifluoromethyl)quinazolin-4-yl]phenoxy}phenyl)sulfonyl]butan-1-amine]",,,9.42,0.584
"Cc1nc(-c2cc(Oc3cccc(S(=O)(=O)CCCCNS(C)(=O)=O)c3)ccc2Cl)c2cccc(C(F)(F)F)c2n1 [Example 63, N-{4-[(3-{4-chloro-3-[2-methyl-8-(trifluoromethyl)quinazolin-4-yl]phenoxy}phenyl)sulfonyl]-butyl}methanesulfonamide]",,,4.54,0.326
"CS(=O)(=O)NCCCCS(=O)(=O)c1cccc(Oc2ccc(F)c(-c3ncnc4c(C(F)(F)F)cccc34)c2)c1 [Example 36, N-{4-[(3-{4-fluoro-3-[8-(trifluoromethyl)quinazolin-4-yl]phenoxy}phenyl)sulfonyl]butyl]methanesulfonamide]",,,2.73,0.221
"O=C(O)CCCS(=O)(=O)c1cccc(Oc2ccc(F)c(-c3ncnc4c(C(F)(F)F)cccc34)c2)c1 [Example 27, 4-[(3-{4-fluoro-3-[8-(trifluoromethyl)quinazolin-4-yl]phenoxy}phenyl)sulfonyl]butanoic acid]",,,16.7,1.2
"NC(=O)CCCCS(=O)(=O)c1cccc(Oc2ccc(F)c(-c3ncnc4c(Cl)cccc34)c2)c1 [Example 53, 5-({3-[3-(8-chloroquinazolin-4-yl)-4-fluorophenoxy]phenyl}sulfonyl)pentanamide]",,,232,0.324
"CS(=O)(=O)c1cc(Oc2ccc(Cl)c(-c3ncnc4c(C(F)(F)F)cccc34)c2)ccc1C#N [Example 2, 4-{4-chloro-3-[8-(trifluoromethyl)quinazolin-4-yl]phenoxy}-2-(methylsulfonyl)benzonitrile]",,,1.06,0.152
"N#CCCCS(=O)(=O)c1cccc(Oc2ccc(F)c(-c3ncnc4c(Cl)cccc34)c2)c1 [Example 47, 4-({3-[3-(8-chloroquinazolin-4-yl)-4-fluorophenoxy]phenyl}sulfonyl)butanenitrile]",,,3.98,0.274
"Cc1nc(-c2cc(Oc3cccc(S(=O)(=O)CCCC#N)c3)ccc2Cl)c2cccc(C(F)(F)F)c2n1 [Example 59, 4-[(3-{4-chloro-3-[2-methyl-8-(trifluoromethyl)quinazolin-4-yl]phenoxy}phenyl)sulfonyl]-butanenitrile]",,,2.26,0.15
"NCCCS(=O)(=O)c1cccc(Oc2ccc(F)c(-c3ncnc4c(Cl)cccc34)c2)c1 [Example 46, 3-({3-[3-(8-chloroquinazolin-4-yl)-4-fluorophenoxy]phenyl}sulfonyl)propan-1-amine]",,,8.18,0.296
"NC(=O)CCCCS(=O)(=O)c1cccc(Oc2ccc(F)c(-c3ncnc4c(C(F)(F)F)cccc34)c2)c1 [Example 33, 5-[(3-{4-fluoro-3-[8-(trifluoromethyl)quinazolin-4-yl]phenoxy}phenyl)sulfonyl]pentanamide]",,,1.35,0.13
"NCCCCS(=O)(=O)c1cccc(Oc2ccc(F)c(-c3ncnc4c(Cl)cccc34)c2)c1 [Example 45, 4-({3-[3-(8-chloroquinazolin-4-yl)-4-fluorophenoxy]phenyl}sulfonyl)butan-1-amine]",,,11.5,1.88
"O=C(O)CCCCS(=O)(=O)c1cccc(Oc2ccc(F)c(-c3ncnc4c(C(F)(F)F)cccc34)c2)c1 [Example 34, 5-[(3-{4-fluoro-3-[8-(trifluoromethyl)quinazolin-4-yl]phenoxy}phenyl)sulfonyl]pentanoic acid]",,,11.9,1.43
"CS(=O)(=O)c1cc(Oc2ccc(F)c(-c3ncnc4c(Cl)cccc34)c2)ccc1C(N)=O [Example 42, 4-[3-(8-chloroquinazolin-4-yl)-4-fluorophenoxy]-2-(methylsulfonyl)benzamide]",,,10.9,4.9
"CS(=O)(=O)NCCCCS(=O)(=O)c1cccc(Oc2ccc(F)c(-c3ncnc4c(Cl)cccc34)c2)c1 [Example 51, N-[4-({3-[3-(8-chloroquinazolin-4-yl)-4-fluorophenoxy]phenyl}sulfonyl)butyl]methane-sulfonamide]",,,4.89,0.444
"CS(=O)(=O)c1cc(Oc2ccc(F)c(-c3ncnc4c(C(F)(F)F)cccc34)c2)ccc1C#N [Example 38, 4-{4-fluoro-3-[8-(trifluoromethyl)quinazolin-4-yl]phenoxy}-2-(methylsulfonyl)benzonitrile]",,,4.1,0.506
"NC(=O)CCCS(=O)(=O)c1cccc(Oc2ccc(F)c(-c3ncnc4c(Cl)cccc34)c2)c1 [Example 54, 4-({3-[3-(8-chloroquinazolin-4-yl)-4-fluorophenoxy]phenyl}sulfonyl)butanamide]",,,6.54,0.584
